Data on one compound can be found in patent publication US6727274B2, “Arylsulphonyl substituted-tetrahydro- and hexahydro-carbazoles” (Pharmacia & Upjohn Company, priority 2001, dated 2004).

Some results are limits rather than exact numbers.

On to `CN[C@@H]1CCc2c(c3cc(S(=O)(=O)c4ccccc4)ccc3n2C)C1.Cl`, for which the melting point (in general, the temperature, or range, at which the solid turns liquid) was above 275 °C.
